“And” between values parts separate entries of the source, which are not always exact repeats. Equal values may be shown once. Read-outs that look alike come from different tables or passages of the source.

The conditions of data set [1]: for Emission maxima: excited at the wavelength printed in the cell (493, 553 or 320 nm), pH 7.0, 25° C.; for Quantum yield: pH 7.0 aqueous solution, standard fluorescein in 0.1 N NaOH, φs=0.90. The procedure:
A 3×3 mm cell was used for measurement, and the following settings were used to measure each spectrum: response 1.0 s, sensitivity low, and slit width fixed at 3 nm for both excitation and fluorescence sides.
The quantum yield (φ) was calculated according to the following equation and fluorescein (1.0 μM in 0.1 N NaOH, φs=0.90) was used as a standard. φ=(F·As·η^2·φs)/(A·Fs·η0^2)
F: Area of each fluorescence spectrum
A: Absorbance at the excitation wavelength
η: Refractive index (water: 1.33)

The target of data set [2] is T1, T7 RNA polymerase (Escherichia phage T7, UniProt P00573). The following applies: compared to transcription using the natural template and substrates only; 1 mM modified yTP, 37° C., 3 hours. The procedure: More specifically, double-stranded template DNA (10 μM) was annealed in 10 mM Tris-HCl buffer (pH 7.6) containing 10 mM NaCl under the following conditions: 95° C. for 3 minutes→50° C. for 3 minutes→slow cooling to 4° C. T7 transcription reaction was accomplished in a reaction solution (20 μl) containing 40 mM Tris-HCl buffer (pH 8.0), 24 mM MgCl2, 2 mM spermidine, 5 mM DTT, 0.01% Triton X-100, 2 μCi [y-^32P]GTP, 1 mM NTPs, 1 mM modified yTP, 2 μM template DNA, and 50 units of T7 RNA polymerase (Takara).
T1 sequence (P00573 whole entry): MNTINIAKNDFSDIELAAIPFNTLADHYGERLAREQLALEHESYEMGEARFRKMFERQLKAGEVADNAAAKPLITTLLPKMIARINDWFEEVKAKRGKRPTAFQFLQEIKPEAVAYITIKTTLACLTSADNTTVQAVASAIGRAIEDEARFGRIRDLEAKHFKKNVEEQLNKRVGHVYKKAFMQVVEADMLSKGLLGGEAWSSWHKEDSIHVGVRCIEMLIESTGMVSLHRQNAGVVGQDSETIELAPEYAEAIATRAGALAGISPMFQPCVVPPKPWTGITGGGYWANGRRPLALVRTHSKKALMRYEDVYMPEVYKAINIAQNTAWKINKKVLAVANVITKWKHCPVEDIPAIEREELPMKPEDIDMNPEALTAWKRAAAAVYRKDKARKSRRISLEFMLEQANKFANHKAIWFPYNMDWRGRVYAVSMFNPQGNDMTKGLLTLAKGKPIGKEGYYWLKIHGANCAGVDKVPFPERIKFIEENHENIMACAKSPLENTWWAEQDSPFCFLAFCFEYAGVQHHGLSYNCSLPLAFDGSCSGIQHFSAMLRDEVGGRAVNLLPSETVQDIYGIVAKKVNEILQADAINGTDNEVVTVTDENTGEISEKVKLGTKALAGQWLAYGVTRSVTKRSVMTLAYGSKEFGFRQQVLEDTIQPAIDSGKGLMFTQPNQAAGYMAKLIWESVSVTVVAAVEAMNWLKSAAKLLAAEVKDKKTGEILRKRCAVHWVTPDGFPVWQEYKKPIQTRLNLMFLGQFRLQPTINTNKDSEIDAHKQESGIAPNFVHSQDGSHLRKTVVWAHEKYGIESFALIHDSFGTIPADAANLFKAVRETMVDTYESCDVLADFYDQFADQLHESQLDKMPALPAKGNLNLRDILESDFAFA
The template DNA used was a duplex formed between T7 promoter-containing 35-mer template strand and T7 promoter non-template strand 21-mer, which has been modified to have s or v introduced at a single position within the template.
where N(5)=v (the present invention), s (the present invention) or A (control)
where N′(13)=NH2-y, FAM-y or TAMRA-y
The modified substrate was added in the same amount as the natural substrates and reacted at 37° C. for 3 hours, followed by addition of an electrophoresis dye solution (20 μl) containing 10 M urea to stop the reaction. The reaction solution was heated at 75° C. for 3 minutes and then electrophoresed on a 20% polyacrylamide-7 M urea gel. The transcripts were analyzed with a bio-imaging analyzer.

For data set [3], the target named is T1, T7 RNA polymerase. The following applies: RNA 17-mer transcript, RNase T2 digest, [α-32P]ATP.
Method: The same T7 RNA polymerase-mediated transcription reaction as shown in Example 11 was performed in a reaction solution containing 40 mM Tris-HCl buffer (pH 8.0), 24 mM MgCl2, 2 mM spermidine, 5 mM DTT, 0.01% Triton X-100, 2 μCi [α-^32P]ATP, 1 mM NTPs, 1 mM modified-yTP, 2 μM template DNA, and 50 units of T7 RNA polymerase (Takara). After electrophoresis on a 15% polyacrylamide-7 M urea gel, the transcript was eluted from the gel and collected by ethanol precipitation in the presence of tRNA (0.25 OD).
To this tRNA-containing solution (8.5 μl), RNase T2 (1.5 μl, 1 unit/μl) was added and reacted overnight at 37° C. 0.3 μl of this solution was spotted on a TLC plate (Merck, 10 cm×10 cm) and developed two-dimensionally. As a developing solution, isobutyric acid:concentrated aqueous ammonia:water=66:1:33 (v/v/v) was used for the first dimension and 2-propanol:hydrochloric acid:water=65:10:25 (v/v/v) was used for the second dimension. The developed spots were detected and analyzed with a bio-imaging analyzer.
[4] abbreviates: 1.0 μM in 10 mM sodium phosphate buffer (pH 7.0), 25° C.

As to `CN(C)c1cccc2c(S(=O)(=O)NCCCCCC(=O)NCCCCCC(=O)NCC#Cc3c[nH]c(=O)c([C@@H]4O[C@H](COP(=O)(O)OP(=O)(O)OP(=O)(O)O)[C@@H](O)[C@H]4O)c3)cccc12` [Dansyl-x-yTP, 3-(β-D-ribofuranosyl)-5-[3-[6-[6-[(5-dimethylaminonaphthalene-1-sulfonyl)amino]hexanamido]hexanamido]-1-propynyl]-2-oxo(1H)pyridine 5′-triphosphate], in data set [1] (setting [4]), the Absorption maxima is 319 nm and 252 nm. In addition, in data set [1], the Emission maxima was 387 nm and 541 nm; the Quantum yield turned out to be 0.014.
For the compound `O=C(CCCCCNC(=O)c1ccc2c(c1)C(=O)OC21c2ccc(O)cc2Oc2cc(O)ccc21)NCC#Cc1c[nH]c(=O)c([C@@H]2O[C@H](COP(=O)(O)OP(=O)(O)OP(=O)(O)O)[C@@H](O)[C@H]2O)c1` [FAM-yTP, 3-(β-D-ribofuranosyl)-5-[3-[6-(fluorescein-5-carboxamido)hexanamido]-1-propynyl]-2-oxo(1H)pyridine 5′-triphosphate], in data set [1] (setting [4]), the Absorption maxima is reported as 493 nm and the “ε at absorption maximum” value is given as 62,000. The same compound displayed a Quantum yield in data set [1] of 0.55. Besides, the “yield of RNA incorporating the modified substrate” value at T7 RNA polymerase [2] came to 76%.
As to `NCCCCCC(=O)NCC#Cc1c[nH]c(=O)c([C@@H]2O[C@H](COP(=O)(O)OP(=O)(O)OP(=O)(O)O)[C@@H](O)[C@H]2O)c1` [NH2-yTP, 3-(β-D-ribofuranosyl)-5-[3-(6-aminohexanamido)-1-propynyl]-2-oxo(1H)pyridine 5′-triphosphate], the “incorporation opposite v in the template” value at T7 RNA polymerase [3] is listed as “specific incorporation”. Further, the “yield of RNA incorporating the modified substrate” value at T7 RNA polymerase [2] was “same yield”.
As to `CN(C)c1ccc2c(-c3cc(C(=O)NCCCCCC(=O)NCC#Cc4c[nH]c(=O)c([C@@H]5O[C@H](COP(=O)(O)OP(=O)(O)OP(=O)(O)O)[C@@H](O)[C@H]5O)c4)ccc3C(=O)[O-])c3ccc(N(C)C)cc3[o+]c2c1` [TAMRA-yTP, 3-(β-D-ribofuranosyl)-5-[3-[6-(tetramethylrhodamine-5-carboxamido)hexanamido]-1-propynyl]-2-oxo(1H)pyridine 5′-triphosphate], in data set [1] (pH 7), the Absorption maxima is 553 nm and 553 (ε 85,000) nm; the “ε at absorption maximum” value is 553 (ε 85,000). The same compound yielded a Quantum yield in data set [1] of 0.50. For the same compound, at T7 RNA polymerase [2], the “yield of RNA incorporating the modified substrate” value is 61%.
For the compound `O=C(NCC#Cc1c[nH]c(=O)c([C@@H]2O[C@H](COP(=O)(O)OP(=O)(O)OP(=O)(O)O)[C@@H](O)[C@H]2O)c1)c1ccc2c(c1)C(=O)OC21c2ccc(O)cc2Oc2cc(O)ccc21` [short FAM-yTP, 3-(β-D-ribofuranosyl)-5-[3-(fluorescein-5-carboxamido)-1-propynyl]-2-oxo(1H)pyridine 5′-triphosphate], in data set [1] (setting [4]), the Absorption maxima was found to be 493 nm and the “ε at absorption maximum” value was 70,000. Also, in data set [1], the Emission maxima is given as 521 (excited at 493 nm) and the Quantum yield was 0.67.

Values taken from patent US7960543B2, “Nucleoside or nucleotide derivative and use thereof” (RIKEN, priority 2004, dated 2011).
